Assay results as given in patent US20080081826A1, “SYSTEM FOR EFFECTING WEIGHT LOSS” (priority 2006, published 2008).

Tests used:
[1] = Clinical weight loss studies (historical) in overweight or obese patients, 12 or 24 weeks; format: in vivo, human patients; settings: no meal replacement
Method: To conduct the studies, patients who were diagnosed as overweight or obese were chosen for clinical trials to assess weight loss as a function of prescribed meal replacements or a weight loss agent (sibutramine). Co-administration of both a weight loss agent and meal replacement was also tested.
All patients received lifestyle modification training of either a moderate (data Groups 1-9, 11, and 12) or intensive (data Group 10) character which included a patient's participation in record keeping, professional consultation, and exercise in addition to the dietary protocol. Patients placed on a “Moderate” lifestyle management program were given a diet sheet with instructions for a defined intake of daily calories ranging from 800-1600 kcal, or a 600 kcal deficit diet, with or without exercise and routine visits with the Primary Care Provider to reinforce diet and behavior modification, but relying primarily on patient self-monitoring. Patients placed on an “Intensive” lifestyle management program were given a diet sheet with a defined intake of daily calories ranging from 800-1600 kcal, or a 600 kcal deficit diet, with meals recorded in a food diary, and were provided with ongoing diet counseling and caloric adjustment according to weight loss “Intensive” patients were also given defined minimal weekly requirements for exercise and instructed to record their activities in an exercise diary that was then collected and reviewed by the Primary Care Provider. The Intensive program also included routine visits throughout the course of the study with a Dietitian and the Primary Care Provider in order to reinforce diet and behavior modification.
Patients in some groups (see Table 2, data Groups 2, 11, and 12) utilized meal replacement formulations. These individuals were given a diet sheet with a defined intake of daily calories ranging from 800-1600 kcal, or a 600 kcal deficit diet, with a meal replacement formulation taken once or twice daily instead of a food meal, and routine visits with a Primary Care Provider to reinforce diet and behavior modification, but relying primarily on patient self-monitoring.
The remainder of the patients (see Table 2, data Groups 3-11) also received daily doses of sibutramine at 10 mg/day (data Groups 3-7 and 11) or 15 mg/day (data Groups 8, 9, and 12). Individuals in data Groups 11 and 12 were given a diet sheet with a defined intake of daily calories ranging from 800-1600 kcal, or a 600 kcal deficit diet, with a meal replacement formulation (SlimFast®) taken once or twice daily instead of a food meal where applicable (see Table 2), and routine visits with a Primary Care Provider to reinforce diet and behavior modification, but relying primarily on patient self-monitoring. Patients in data Group 10 were placed on a 10 mg/day sibutramine and “Intensive” life style management regimen with no meal replacement.
In each of the studies, patients were monitored for weight loss over a 12- or 24-week period. The data groups ranged in size from 17 to 592 patients, and were placed on either a conventional diet with moderate lifestyle management program (data Group 1), or a diet including a meal replacement component including substitution of either one or two meals per day with a meal replacement formulation, as part of a moderate lifestyle management (data Group 2), or a conventional diet plus one daily dose of sibutramine (10 mg) with a moderate or intensive lifestyle management (data Groups 3-7 and 10), a conventional diet plus one daily dose of sibutramine (15 mg) with moderate lifestyle management (data Groups 8 and 9), and finally, a diet with one or two meal replacements (SlimFast®) plus one daily dose of sibutramine (10 mg) and moderate lifestyle management (data Group 11) or a diet with one or two meal replacements (SlimFast®) plus one daily dose of sibutramine (10 mg for 12 weeks followed by 15 mg for 12 weeks) (data Group 12).
All subjects received moderate or intensive lifestyle management training. […]

[2] = test system: gastric and pancreatic lipase; settings: literature; cited from earlier work
[3] = data Groups 8 and 9: 15 mg sibutramine + moderate lifestyle management, 24 weeks

| Compound | Mean Weight Change (kg) (LOCF*) ([1]; data Group 3: sibutramine 10 mg/day, moderate lifestyle management, 12 weeks) | weight loss (lower end of range, sibutramine only) ([1]; data Group 3 as worded in text: 10 mg sibutramine/day + moderate lifestyle management, latest observation to week 12) [kg] | Mean Weight Change (kg) (LOCF*) ([1]; data Group 4: sibutramine 10 mg/day, moderate lifestyle management, 12 weeks) | mean weight loss ([1]; data Group 5: 10 mg/day sibutramine + moderate lifestyle management, latest observation to week 12) [kg] | Mean Weight Change (kg) (LOCF*) ([1]; data Group 5: sibutramine 10 mg/day, moderate lifestyle management, 12 weeks) | Mean Weight Change (kg) (LOCF*) ([1]; data Group 6: sibutramine 10 mg/day, moderate lifestyle management, 12 weeks) | Mean Weight Change (kg) (LOCF*) ([1]; data Group 7: sibutramine 10 mg/day, moderate lifestyle management, 12 weeks) | Mean Weight Change (kg) (LOCF*) ([1]; data Group 8: sibutramine 15 mg/day, moderate lifestyle management, 24 weeks) | Mean Weight Change (kg) (LOCF*) ([1]; data Group 9: sibutramine 15 mg/day, moderate lifestyle management, 24 weeks) | weight loss (upper end of range, sibutramine only) ([1]; data Group 10: 10 mg sibutramine/day + intensive lifestyle management, latest observation to week 12) [kg] | Mean Weight Change (kg) (LOCF*) ([1]; data Group 10: sibutramine 10 mg/day, intensive lifestyle management, 12 weeks) | overall average weight loss of all groups ([1]; data Groups 3-7: 10 mg/day sibutramine, moderate lifestyle management, 12 weeks) [kg] | average weight loss [1, 3] [kg] | improvement of average weight loss by the higher 15 mg dose [1, 3] | fraction of the fat contained in a meal whose absorption is blocked [2] |
| --- | --- | --- | --- | --- | --- | --- | --- | --- | --- | --- | --- | --- | --- | --- | --- |
| CC(C)CC(N(C)C)C1(c2ccc(Cl)cc2)CCC1 (stereo not drawn) [sibutramine, N,N-dimethyl-1-[1-(4-chlorophenyl)cyclobutyl]-3-methylbutylamine] | -3.9 | 3.7 | -6.2 | 3.7 | -3.7 | -5 | -4.2 | -6.4 | -5.6 | 8.4 | -8.4 | 4.6 | 6.0 | approximately 25% |  |
| CCCCCCCCCCC[C@H](C[C@H]1OC(=O)[C@H]1CCCCCC)OC(=O)[C@@H](CC(C)C)NC=O [orlistat, (2S,3S,5S)-5-[(S)-2-formamido-4-methylvaleryloxy]-2-hexyl-3-hydroxyhexadecanoic acid lactone] |  |  |  |  |  |  |  |  |  |  |  |  |  |  | about one third |
